# According to EP0194158A2, “Anti-nicotine and anti-cotinine antibodies (monoclonal and other), and their uses in nicotine and cotinine assays” (Baylor College of Medicine, priority 1985, dated 1986):
# Like-named read-outs stand apart in the source and are kept apart here.
# Legend:
# [1] = molecular target: monoclonal antibody Anti-nicotine 402C10; assay: sandwich ELISA, inhibition of binding of monoclonal antibody to solid phase hapten (specificity); parameters: species or system mouse
# From the text: (§1) Control values were less than 0.05 absorbance unit.
# [2] = molecular target: monoclonal antibody Anti-cotinine 305E5; assay: as above; parameters: species or system mouse
# From the text: as §1
# [3] = test system: Rabbit Antibody 482D (anti-cotinine); assay: Fluorescent (fluorometric) ELISA; type: binding; conditions: nanograms of cotinine inhibitor required for 50% inhibition
# [4] = molecular target: monoclonal antibody Anti-cotinine 305E5, isotype IgG2bk; assay: binding affinity constant K (method of R. Muller); parameters: species or system mouse; conditions: value is K multiplied by 10^-8
# [5] = molecular target: monoclonal antibody Anti-cotinine 308C11, isotype IgG1k; assay: binding affinity constant K (method of R. Muller); parameters: species or system mouse; conditions: value is K multiplied by 10^-8
# [6] = molecular target: monoclonal antibody Anti-cotinine 206F8, isotype IgAlambda; assay: binding affinity constant K (method of R. Muller); parameters: species or system mouse; conditions: value is K multiplied by 10^-8
# [7] = test system: Rabbit Antibody 495D (anti-cotinine); assay: Fluorescent (fluorometric) ELISA; type: binding; conditions: nanograms of cotinine inhibitor required for 50% inhibition
# Experimental: (§2) b. Fluorometric ELISA: The wells of polystyrene microtiter plates (Immulon 2; Dynatech Laboratories, Alexandria, VA) were coated respectively with 0.004 and 0.016 ug of polylysine-cotinine and polylysine-nicotine conjugate (0.1 ml) in 3 mM phosphate buffer, and incubated overnight at 4°C, pH 6.3. After aspiration, the wells were blocked with 0.2 ml casein buffer (0.01M Tris-buffered saline, pH 7.6., containing 0.01M EDTA and 0.2% vitamin-free casein (Nutritional Biochemicals, Cleveland, OH)) for 1 hour at room temperature, and then washed once with 0.2 ml of the same buffer and again aspirated. Assays were performed in 0.1 ml total volume per well using 0.050 ml diluted ascites (0.025 ml sample), and 0.025 ml nicotine or cotinine. Plates were incubated overnight at 4°C, washed three times with 0.2 ml casein buffer and then 0.1 ml biotin conjugated sheep anti-mouse IgG (Cooper Biomedical, Malvern, PA) diluted 1/250 with casein buffer was added. After incubation for 3 hours at room temperature, the plates were washed three times with 0.2 ml casein buffer, and streptavidin (0.5 ug) was added to each well, incubated for 1 hour at room temperature and washed as before. 0.1 ml of biotinylated alkaline phosphatase (Zymed, South San Francisco, CA) diluted 1/200 was added to each well, the plates were incubated for 1 hour at room temperature, washed with 0.2 ml PBS containing 0.05% Tween-20, and then washed three times with 0.2 ml of 0.01 M Tris-buffered saline, pH 7.6. 0.1 ml of substrate was added containing 2.5 mM 4-methylumbelliferyl phosphate dissolved in buffer containing diethanolamine (20% v/v) pH 10, 1 mM MgClz, and 9 mM levamisol. Fluorescence was measured with a Microfluor fluorometer (Dynatech Laboratories) at an excitation wavelength of 365 nm and emission wavelength of 450 nm. The plates were read right after substrate was added and again at 30 minute intervals. (Plates should be stored in the dark).
# [8] = test system: Rabbit Antibody 494D (anti-cotinine); assay: Fluorescent (fluorometric) ELISA; type: binding; conditions: nanograms of cotinine inhibitor required for 50% inhibition
# Experimental: as §2
# [9] = test system: Rabbit Antibody 113D (anti-cotinine); assay: Fluorescent (fluorometric) ELISA; type: binding; conditions: nanograms of cotinine inhibitor required for 50% inhibition
# Experimental: as §2
# [10] = test system: the 4 anticotinine antibodies (McAb); assay: sandwich ELISA, inhibition by homologous hapten, all anti-cotinine McAb; type: binding, mouse; conditions: range over the 4 antibodies; each McAb diluted to give A490 1.0-1.2 without inhibitor
# Experimental: as §1
# Only 0.02 ng cotinine inhibited by 15%.
# [11] = test system: Rabbit Antibody 481D (anti-cotinine); assay: Fluorescent (fluorometric) ELISA; type: binding; conditions: nanograms of cotinine inhibitor required for 50% inhibition
# [12] = test system: Monoclonal Antibody 309G5 (anti-cotinine); assay: Fluorescent (fluorometric) ELISA; type: binding, mouse; conditions: nanograms of cotinine inhibitor required for 50% inhibition
# Experimental: as §2
# [13] = test system: Monoclonal Antibody 206F8 (anti-cotinine); assay: Fluorescent (fluorometric) ELISA; type: binding, mouse; conditions: nanograms of cotinine inhibitor required for 50% inhibition
# Experimental: as §2
# [14] = test system: Monoclonal Antibody 305E5 (anti-cotinine); assay: Fluorescent (fluorometric) ELISA; type: binding, mouse; conditions: nanograms of cotinine inhibitor required for 50% inhibition
# Experimental: as §2
# [15] = test system: Monoclonal Antibody 308C11 (anti-cotinine); assay: Fluorescent (fluorometric) ELISA; type: binding, mouse; conditions: nanograms of cotinine inhibitor required for 50% inhibition
# Experimental: as §2
# [16] = molecular target: monoclonal antibody Anti-cotinine 309G5, isotype IgG1k; assay: binding affinity constant K (method of R. Muller); parameters: species or system mouse; conditions: value is K multiplied by 10^-8
# [17] = test system: the 6 cotinine antisera (rabbit); assay: ELISA with rabbit antisera, no second antibody; type: binding; conditions: range over the 6 antisera
# From the text: In these assays, no second antibody is required, because all rabbit IgG binds HRP-SpA (J.W. Goding, 20 J. Immunol. Methods 241 (1978)).
# [18] = molecular target: monoclonal antibody Anti-nicotine 303C10, isotype IgG2k; conditions: read-out: K; binding affinity constant; value is K multiplied by 10^-8
# Experimental: (§3) The binding affinity constant (K; an indication of binding strength), was measured by the method described in R. Muller, 34 J. Immunol. Methods 345 (i980). The concentration of antibody in the ascites fluid was also measured by a method described in R. Muller, id.
# [19] = molecular target: monoclonal antibody Anti-nicotine 301C4, isotype IgG1lambda; conditions: read-out: K; binding affinity constant; value is K multiplied by 10^-8
# Experimental: as §3
# [20] = molecular target: monoclonal antibody Anti-nicotine 304A7, isotype IgG1lambda; conditions: read-out: K; binding affinity constant; value is K multiplied by 10^-8
# Experimental: as §3
# [21] = molecular target: monoclonal antibody Anti-nicotine 203G3, isotype IgMlambda; conditions: read-out: K; binding affinity constant; value is K multiplied by 10^-8
# Experimental: as §3
# [22] = molecular target: monoclonal antibody Anti-nicotine 304A4, isotype IgG1k; conditions: read-out: K; binding affinity constant; value is K multiplied by 10^-8
# Experimental: as §3
# [23] = molecular target: monoclonal antibody Anti-nicotine 303C5, isotype IgG1lambda; conditions: read-out: K; binding affinity constant; value is K multiplied by 10^-8
# Experimental: as §3
# [24] = molecular target: monoclonal antibody Anti-nicotine 302A12, isotype IgG1k; conditions: read-out: K; binding affinity constant; value is K multiplied by 10^-8
# Experimental: as §3
# [25] = molecular target: monoclonal antibody Anti-nicotine 402C10, isotype IgG2ak; conditions: read-out: K; binding affinity constant; value is K multiplied by 10^-8
# Experimental: as §3
# [26] = molecular target: monoclonal antibody Anti-nicotine 302G3, isotype IgG1lambda; conditions: read-out: K; binding affinity constant; value is K multiplied by 10^-8
# Experimental: as §3
# [27] = test system: single rabbit antinicotine serum
# From the text: Also developed were similar ELISAs using rabbit antisera, that being prepared as described in J.J. Langone et al., Biochemistry (1973) supra; J.J. Langone, H. Van Vunakis, Methods in Enzymology (1982) supra. In these assays, no second antibody is required, because all rabbit IgG binds HRP-SpA (J.W. Goding, 20 J. Immunol. Methods 241 (1978)).
# [28] = test system: the 9 antinicotine antibodies (McAb)
# Experimental: The specificity of two of the antibodies (anti-nicotine 402Cl0 and anti-cotinine 305E5) was analyzed,. using a modification of the sandwich ELISA technique, which technique is described in detail below. In essence, specificity was determined by discerning how much structually related substance need be added to inhibit binding of monoclonal antibody to solid phase hapten by 50%. The assays were carried out in wells coated with 0.012 ug nicotine- or cotinine-polylysine conjugate, and with anti-nicotine and anti-cotinine diluted 1:729,000.
# The modification involved use of 0.01 m1 of serially diluted standard nicotine or cotinine, (known amounts of inhibitors to assess antibody specificity), or test samples (eg. saliva) added to 0.04 ml casein buffer before its incubation with monoclonal antibodies. Maximum A490 values (i.e., maximum antibody binding) were determined using casein buffer (0.01 ml) in place of inhibitor. […] Control values were less than 0.05 absorbance unit. […]
# After the preparation, to determine McAb binding, 0.05 ml diluted ascites fluid was added to 0.05 ml casein buffer and the plates were incubated overnight at 4°C. […] Color development was stopped by addition of 0.05 ml 4N sulfuric acid, and the A490 nm values were measured in the ELISA reader.
# [29] = wells coated with 0.012 ug nicotine-polylysine conjugate, anti-nicotine diluted 1:729,000, total volume 0.1 ml
# [30] = wells coated with 0.012 ug cotinine-polylysine conjugate, anti-cotinine diluted 1:729,000, total volume 0.1 ml
# [31] = at 700 ng, the highest amount printed in the cell
compound,measurement,setting,value
CN1CCCC1CCO (stereo not drawn) [1-methyl-2-pyrrolidine ethanol],Nanograms required for 50% inhibition,[1]; [29],5.4 Nanograms
same,Nanograms required for 50% inhibition,[2]; [30],"6,950 Nanograms"
CN1CCCC1c1cccnc1N (stereo not drawn) [2-aminonicotine],Nanograms required for 50% inhibition,[1]; [29],14.0 Nanograms
same,Nanograms required for 50% inhibition,[2]; [30],"1,700 Nanograms"
CN1CCCC1c1ccc(N)nc1 (stereo not drawn) [6-aminonicotine],Nanograms required for 50% inhibition,[1]; [29],35.0 Nanograms
same,Nanograms required for 50% inhibition,[2]; [30],"8,500 Nanograms"
CN1CCCC1c1ccc(O)nc1 (stereo not drawn) [6-hydroxynicotine],times more required for 50% inhibition than (S)-(-)-nicotine,[1]; ratio to the naturally occurring isomer,5 fold
same,Nanograms required for 50% inhibition,[1]; [29],1.3 Nanograms
same,Nanograms required for 50% inhibition,[2]; [30],330 Nanograms
c1cncc([C@@H]2CCCN2)c1 [(-)-nornicotine],Nanograms required for 50% inhibition,[1],95.0 Nanograms
same,Nanograms required for 50% inhibition,[2],50.0 Nanograms
CN1CCC[C@@H]1c1cccnc1 [(R)-(+)-nicotine],Nanograms required for 50% inhibition,[1],6.4 Nanograms
same,times more required for 50% inhibition than (S)-(-)-nicotine,[1],Twenty-five
same,Nanograms required for 50% inhibition,[2],320 Nanograms
CN1C(=O)CC[C@H]1c1cccnc1 [(S)-(-)-cotinine],I 50%,[3],0.025 nanograms
same,Kd,[4],1.76 nM
same,Kd,[5],3.21 nM
same,Kd,[6],5.41 nM
same,I 50%,[7],0.310 nanograms
same,I 50%,[8],0.075 nanograms
same,I 50%,[9],0.045 nanograms
same,50% inhibition,[10],0.038 to 0.12 ng
same,I 50%,[11],0.215 nanograms
same,I 50%,[12],0.015 nanograms
same,I 50%,[13],0.255 nanograms
same,I 50%,[14],0.024 nanograms
same,I 50%,[15],0.033 nanograms
same,Nanograms required for 50% inhibition,[1]; [29],"1,000 Nanograms"
same,inhibition,[2]; 0.02 ng cotinine,15%
same,Nanograms required for 50% inhibition,[2]; [30],0.12 Nanograms
same,Kd,[16],1.32 nM
same,50% inhibition values,[17],0.3 to 1.2 ng
CN1CCC[C@H]1c1cccnc1 [(S)-(-)-nicotine],Kd,[18],18.5 nM
same,Kd,[19],9.71 nM
same,Kd,[20],11.4 nM
same,Kd,[21],20.8 nM
same,Kd,[22],7.52 nM
same,Kd,[23],7.14 nM
same,Kd,[24],8 nM
same,Kd,[25],8.26 nM
same,Kd,[26],6.17 nM
same,required for 50% inhibition,[27],3.9 ng
same,Stereospecificity for (S)-(-)-nicotine,"[28]; range over all 9 anti-nicotine McAb, versus R-(+)-nicotine",5-45 fold
same,50% inhibition,"[28]; range over the 9 antibodies, each McAb diluted to give A490 1.0-1.2 without inhibitor",0.091 to 0.51 ng
same,inhibition,[1],15%
O=NN1CCCC1c1cccnc1 (stereo not drawn) [N'-nitrosonornicotine],inhibition (per cent in brackets),[1]; [31],31%
same,Nanograms required for 50% inhibition,[1]; [29],> 700 Nanograms
same,Nanograms required for 50% inhibition,[2]; [30],6.5 Nanograms
CCN1CCCC1c1cccnc1 (stereo not drawn) [N-ethylnornicotine],Nanograms required for 50% inhibition,[1]; [29],5.4 Nanograms
same,inhibition (per cent in brackets),"[2]; at the 1,000 ng level",44%
same,Nanograms required for 50% inhibition,[2]; [30],"> 1,000 Nanograms"
c1cncc([C@@H]2CCCCN2)c1 [anabasine],Nanograms required for 50% inhibition,[1]; [29],14.3 Nanograms
same,Nanograms required for 50% inhibition,[2]; [30],170 Nanograms
O=C1CCC(c2cccnc2)N1 (stereo not drawn) [desmethylcotinine],Nanograms required for 50% inhibition,[1]; [29],"10,000 Nanograms"
same,fold more required for 50% inhibition compared to homologous hapten,[2]; ratio to (S)-(-)-cotinine,13 fold
same,Nanograms required for 50% inhibition,[2]; [30],1.6 Nanograms
O=C(O)CCC(=O)c1cccnc1 [gamma-(3-pyridyl-gamma-oxobutyric acid],Nanograms required for 50% inhibition,[1]; [29],"1,920 Nanograms"
same,Nanograms required for 50% inhibition,[2]; [30],410 Nanograms
c1cncc(C2=NCCC2)c1 [myosmine],inhibition (per cent in brackets),[1]; [31],13%
same,Nanograms required for 50% inhibition,[1]; [29],> 700 Nanograms
same,Nanograms required for 50% inhibition,[2]; [30],220 Nanograms
C[N+]1([O-])CCCC1c1cccnc1 (stereo not drawn) [nicotine N'-oxide],Nanograms required for 50% inhibition,[1]; [29],81.0 Nanograms
same,Nanograms required for 50% inhibition,[2]; [30],490 Nanograms
(-)-cotinine N'-oxide,inhibition (per cent in brackets),"[1]; at the 1,000 ng level",0%
same,Nanograms required for 50% inhibition,[1]; [29],"> 1,000 Nanograms"
same,Nanograms required for 50% inhibition,[2]; [30],4.6 Nanograms
